Data published in patent US20260137701A1, “CHOLESTENOIC ACID (CA) AND A SULFATED DERIVATIVE THEREOF, 3[BETA]-SULFATE-5-CHOLESTENOIC ACID (CA3S), AS ENDOGENOUS EPIGENETIC REGULATORS” (priority 2022, published 2026).

System: HepG-2 cells
Test: Whole genome bisulfite sequencing (WGBS), differentially methylated regions
Assay type: cell-based, human
Settings: for DMR (Methylation %) UQCRC1 promoter region / DMR (Methylation %) VDAC2 promoter region / number of DMRs in promoter region, hyper-methylated / number of DMRs in promoter region, hypo-methylated / number of DMRs in promoter region, total / DMR (Methylation %) ADRA1A promoter region / DMR (Methylation %) ADRA1B promoter region / DMR (Methylation %) ADRA1 promoter region / DMR (Methylation %) BCL6 promoter region / DMR (Methylation %) CACNA1D promoter region / DMR (Methylation %) CALML3 promoter region / DMR (Methylation %) CALML4 promoter region / DMR (Methylation %) CAMKK2 promoter region / DMR (Methylation %) COX7B promoter region / DMR (Methylation %) COX8A promoter region / DMR (Methylation %) CPT1A promoter region / DMR (Methylation %) CPT1C promoter region / DMR (Methylation %) CREB3L4 promoter region / DMR (Methylation %) CYP1A1 promoter region / DMR (Methylation %) ESR2 promoter region / DMR (Methylation %) FBP1 promoter region / DMR (Methylation %) FGF1 promoter region / DMR (Methylation %) FGF8 promoter region / DMR (Methylation %) FGFR2 promoter region / DMR (Methylation %) LDHA promoter region / DMR (Methylation %) LDHAL6A promoter region / DMR (Methylation %) LDHC promoter region / DMR (Methylation %) LEP promoter region / DMR (Methylation %) MIR29A promoter region / DMR (Methylation %) MIRLET7B promoter region / DMR (Methylation %) MTOR promoter region / DMR (Methylation %) NTRK3 promoter region / DMR (Methylation %) PDHA2 promoter region / DMR (Methylation %) PDHB promoter region / DMR (Methylation %) PHKG1 promoter region / DMR (Methylation %) PPARG promoter region / DMR (Methylation %) SDHA promoter region / DMR (Methylation %) SDHB promoter region / DMR (Methylation %) SPHK2 promoter region: 20 μM CA
Protocol: After culturing HepG-2 cells in DMEM medium with HG for 72 hours followed by treating with 20 μM CA for 0, 3, 6, 12, and 24 hours, genomic DNA from 5×10^7 cells were extracted using QIAamp® DNA Mini Kit (QIAGEN, Hilden, Germany). Each sample, 6 μg, was sent to CD Genomics Co., Ltd (New York, USA) for analysis of WGBS. Total RNA was isolated using the Promega SV total RNA isolation system (Madison, WI, USA) with DNase treatment. Each sample, 2 μg, were sent to CD Genomics Co., Ltd (New York, USA) for analysis of RNA sequencing. The same samples, 2 μg, was used for the first-strand cDNA synthesis as recommended by the manufacturer (Invitrogen, Carlsbad, CA). RT-qPCR was performed using SYBR Green as the indicator on ABI 7500 Fast Real-Time PCR System (Applied Biosystems, Foster City, CA). Amplifications of j-actin or GAPDH were used as internal controls. Relative messenger RNA (mRNA) expression was quantified with the comparative cycle threshold (Ct) method using a sutiable primer set and was expressed as 2-ΔΔCt as described previously.
Each sample, 1 μg of genomic DNA was fragmented by sonication to a mean size of approximately 200-400 bp, and subsequently used for WGBS library construction using Acegen Bisulfite-Seq Library Prep Kit (Acegen) following the manufacturer's instructions. The methylated adapter-ligated DNAs were purified using 0.8×Agencourt AMPure™ XP magnetic beads and subjected to bisulfite conversion by ZYMO EZ DNA Methylation-Gold™ Kit (Zymo Research Corporation, CA, USA). The converted DNAs were then amplified using 25 μl KAPA HiFi™ HotStart Uracil+ ReadyMix (2×) and 8-bp index primers with a final concentration of 1 μM each. The constructed WGBS libraries were then analyzed by Agilent 2100 Bioanalyzer and quantified by a Qubit fluorometer with Quant-iT™ dsDNA HS Assay Kit (Invitrogen), and finally sequenced on Illumina® Hiseq X™ Ten sequencer. After the preparation of the library, Qubit 2.0 and Agilent 2100 were used respectively to detect the concentration of the library and the Insert Size, and the effective concentration (>2 nM) of the library was quantitatively determined by Q-PCR to ensure the library quality.
Samples were sequenced using the Illumina® HiSeq sequencing platform. Raw data generated on the sequencing platform contained a small percentage of low-quality data, which was then filtered to get high-quality data. Bsmap software was used to perform alignments of bisulfite-treated reads to a reference genome (GRCh37). Metilene software was used to identify differentially methylated regions (DMRs). DAVID software (website located at david.ncifcrf.gov/) was used to test the statistical enrichment of DMR related genes in the Gene Ontology (GO) and Kyoto Encyclopedia of Genes and Genomes (KEGG) pathways.

## CC(CCC[C@@H](C)[C@H]1CC[C@H]2[C@@H]3CC=C4C[C@@H](O)CC[C@]4(C)[C@H]3CC[C@]12C)C(=O)O (stereo partly drawn) [CA, 3β-hydroxy-5-cholestenoic acid]
6 h
  DMR (Methylation %) UQCRC1 promoter region: −56.12%
  DMR (Methylation %) VDAC2 promoter region: −40.06%
6 hours
  number of DMRs in promoter region, hyper-methylated: 1,749
  number of DMRs in promoter region, hypo-methylated: 22,621
  number of DMRs in promoter region, total: 24,370
12 h
  DMR (Methylation %) ADRA1A promoter region: −30.57%
  DMR (Methylation %) ADRA1B promoter region: 0%
  DMR (Methylation %) ADRA1 promoter region: −30.57%
  DMR (Methylation %) BCL6 promoter region: −33.25%
  DMR (Methylation %) CACNA1D promoter region: 0%
  DMR (Methylation %) CALML3 promoter region: −30.32%
  DMR (Methylation %) CALML4 promoter region: −21.6%
  DMR (Methylation %) CAMKK2 promoter region: −23.88%
  DMR (Methylation %) COX7B promoter region: 0%
  DMR (Methylation %) COX8A promoter region: 0%
  DMR (Methylation %) CPT1A promoter region: −16.93%
  DMR (Methylation %) CPT1C promoter region: −24.72%
  DMR (Methylation %) CREB3L4 promoter region: 0%
  DMR (Methylation %) CYP1A1 promoter region: 0%
  DMR (Methylation %) ESR2 promoter region: −28.97%
  DMR (Methylation %) FBP1 promoter region: 0%
  DMR (Methylation %) FGF1 promoter region: −48.58%
  DMR (Methylation %) FGF8 promoter region: −37.87%
  DMR (Methylation %) FGFR2 promoter region: 0%
  DMR (Methylation %) LDHA promoter region: −36.43%
  DMR (Methylation %) LDHAL6A promoter region: 0%
  DMR (Methylation %) LDHC promoter region: 0%
  DMR (Methylation %) LEP promoter region: −62.7%
  DMR (Methylation %) MIR29A promoter region: −22.09%
  DMR (Methylation %) MIRLET7B promoter region: 0%
  DMR (Methylation %) MTOR promoter region: −27.13%
  DMR (Methylation %) NTRK3 promoter region: −53.95%
  DMR (Methylation %) PDHA2 promoter region: −28.93%
  DMR (Methylation %) PDHB promoter region: 0%
  DMR (Methylation %) PHKG1 promoter region: −24.54%
  DMR (Methylation %) PPARG promoter region: −27.41%
  DMR (Methylation %) SDHA promoter region: 0%
  DMR (Methylation %) SDHB promoter region: −38.35%
  DMR (Methylation %) SPHK2 promoter region: −18.02%
  DMR (Methylation %) UQCRC1 promoter region: −23.36%
  DMR (Methylation %) VDAC2 promoter region: −19.71%
12 hours
  number of DMRs in promoter region, hyper-methylated: 1,891
  number of DMRs in promoter region, hypo-methylated: 23,813
  number of DMRs in promoter region, total: 25,704
24 h
  DMR (Methylation %) ADRA1A promoter region: −30.81%
  DMR (Methylation %) ADRA1B promoter region: 0%
  DMR (Methylation %) ADRA1 promoter region: −30.81%
  DMR (Methylation %) BCL6 promoter region: −31.52%
  DMR (Methylation %) CACNA1D promoter region: 0%
  DMR (Methylation %) CALML3 promoter region: −26.91%
  DMR (Methylation %) CALML4 promoter region: −21%
  DMR (Methylation %) CAMKK2 promoter region: 0%
  DMR (Methylation %) COX7B promoter region: 0%
  DMR (Methylation %) COX8A promoter region: −34.15%
  DMR (Methylation %) CPT1A promoter region: −29.33%
  DMR (Methylation %) CPT1C promoter region: −24.09%
  DMR (Methylation %) CREB3L4 promoter region: −35.93%
  DMR (Methylation %) CYP1A1 promoter region: −27.04%
  DMR (Methylation %) ESR2 promoter region: −24.69%
  DMR (Methylation %) FBP1 promoter region: −28.62%
  DMR (Methylation %) FGF1 promoter region: 0%
  DMR (Methylation %) FGF8 promoter region: 0%
  DMR (Methylation %) FGFR2 promoter region: −24.29%
  DMR (Methylation %) LDHA promoter region: −32.94%
  DMR (Methylation %) LDHAL6A promoter region: −22.36%
  DMR (Methylation %) LDHC promoter region: −31.77%
  DMR (Methylation %) LEP promoter region: 0%
  DMR (Methylation %) MIR29A promoter region: −26.93%
  DMR (Methylation %) MIRLET7B promoter region: −24.75%
  DMR (Methylation %) MTOR promoter region: 0%
  DMR (Methylation %) NTRK3 promoter region: −53.82%
  DMR (Methylation %) PDHA2 promoter region: −38.56%
  DMR (Methylation %) PDHB promoter region: −26.74%
  DMR (Methylation %) PHKG1 promoter region: −33.52%
  DMR (Methylation %) PPARG promoter region: −27.57%
  DMR (Methylation %) SDHA promoter region: −23.5%
  DMR (Methylation %) SDHB promoter region: 0%
  DMR (Methylation %) SPHK2 promoter region: −45.29%
  DMR (Methylation %) UQCRC1 promoter region: −26.32%
  DMR (Methylation %) VDAC2 promoter region: −26.13%
24 hours
  number of DMRs in promoter region, hyper-methylated: 1,594
  number of DMRs in promoter region, hypo-methylated: 26,762
  number of DMRs in promoter region, total: 28,356
HepG-2 cells
  number of genes with demethylation of 5 mCpG to CpG in promoter regions: over 7,000
